The target in one assay is T1, human NK3 receptor (Homo sapiens, UniProt P29371).
T1 construct: expressed in transfected cells; host or cells: human U2OS cells transiently transduced with recombinant BacMam virus
T1 sequence (P29371 1-465): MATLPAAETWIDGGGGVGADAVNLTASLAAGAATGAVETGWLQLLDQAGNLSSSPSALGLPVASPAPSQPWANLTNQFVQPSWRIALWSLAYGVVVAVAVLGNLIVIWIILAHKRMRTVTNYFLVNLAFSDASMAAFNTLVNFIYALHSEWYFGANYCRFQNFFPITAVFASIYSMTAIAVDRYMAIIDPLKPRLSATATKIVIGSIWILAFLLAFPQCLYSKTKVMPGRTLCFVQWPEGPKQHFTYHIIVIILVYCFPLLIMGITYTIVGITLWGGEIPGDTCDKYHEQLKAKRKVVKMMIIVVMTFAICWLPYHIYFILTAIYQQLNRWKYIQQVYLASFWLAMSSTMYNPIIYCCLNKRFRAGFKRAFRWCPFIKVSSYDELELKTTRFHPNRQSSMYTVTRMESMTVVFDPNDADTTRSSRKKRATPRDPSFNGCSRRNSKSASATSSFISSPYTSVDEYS
As to the kind of experiment: NK functional potency, FLIPR calcium release in U2OS cells (NKB as ligand). The assay is classed as cell-based. The conditions noted are these: BacMam human NK3, average of at least two determinations, read-out: NK3 pKi (functional potency, fpKi) (converted). From the text: Compounds of the invention were further characterised in a functional assay using FLIPR technology for the determination of their effect to inhibit the intracellular calcium release induced by interaction of NK receptors with its perspective ligands. Human U2OS cells transiently transduced with recombinant BacMam virus expressing human NK1, NK2 and NK3 receptors were used in the studies (see J. P. Condreay et al, Proc. Natl. Acad. Sci. USA 1999, 96(1): 127-132). Briefly, U2OS cells were harvested from tissue culture flasks, re-suspended to a cell density of 200-300K/ml and mixed with recombinant BacMam virus carrying NKR gene in a virus/cell ratio of 1% (v/v). 10K-15K cells/well were then seeded in 384-well Greiner bio-one plate in culture medium (DMEM with 10% FBS), incubated overnight in 5% CO2 at 37° C. After aspirating the medium, cells were loaded 18-24 hr later with cytoplasmic calcium indicator Fluo-4 Calcium 3 dye (Molecular Devices Co.) in 30 uL/well buffer (Hank's balanced salts with 20 mM Hepes) and incubated in CO2 at 37° C. for 60 minutes. 10 uL/well assay buffer (Hank's balanced salts with 20 mM Hepes) containing different concentrations of compounds were then added to the cells for 30 minutes incubation at 37° C. Finally, 10 uL/well of NKR ligands in assay buffer containing 0.1% BSA was added to the cells and fluorescence signal read on a FLIPR system. Substance P, NKA and NKB peptides were used as the ligands for NK1, NK2 and NK3 receptor, respectively. IC50 values of each compound were determined by an 11-point 3×-dilution inhibition curve. The potency each antagonist (fpKi) was calculated from pIC50 by the Cheng-Prusoff equation using EC50 of ligand determined in a separate experiment.
The compounds of Example 11, Examples 2, 4 and 6 were tested in the NK functional potency assay.

For the next assay, the target named is T2, NK1 receptor (Meriones unguiculatus, UniProt Q5DUB1).
T2 construct: from tissue; host or cells: living gerbils; central nervous system (icv agonist GR73632)
T2 sequence (Q5DUB1 whole entry): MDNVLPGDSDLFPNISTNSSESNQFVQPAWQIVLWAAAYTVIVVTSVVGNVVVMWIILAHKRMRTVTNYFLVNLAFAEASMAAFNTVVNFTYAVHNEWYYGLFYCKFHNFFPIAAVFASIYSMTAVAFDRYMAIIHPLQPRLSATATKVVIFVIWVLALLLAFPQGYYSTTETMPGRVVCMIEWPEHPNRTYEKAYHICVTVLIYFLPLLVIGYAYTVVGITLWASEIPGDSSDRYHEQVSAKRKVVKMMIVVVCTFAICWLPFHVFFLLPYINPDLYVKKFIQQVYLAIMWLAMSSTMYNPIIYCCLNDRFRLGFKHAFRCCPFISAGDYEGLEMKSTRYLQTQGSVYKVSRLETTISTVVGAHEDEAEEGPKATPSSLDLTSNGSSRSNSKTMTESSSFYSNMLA
As to the kind of experiment: gerbil foot tapping model (GR73632-induced, icv). It counts as in vivo. The text has this: The ability of the compounds of the invention to penetrate the central nervous system and to bind at the NK1 receptor may be determined using the gerbil foot tapping model as described by Rupniak & Williams, Eur. Jour. of Pharmacol., 1994. Intracerebroventricular (icv) administration of the NK1 receptor agonist GR73632 (R. M. Hagan et al., Neuropeptides 1991, 19 (2), 127-135) a characteristic hind leg foot tapping (GFT) response in gerbils which can be inhibited by potent NK1 receptor antagonists. The gerbil foot tapping paradigm was carried out as follows; gerbils were dosed with compound of the invention, and following an appropriate pre-treatment time were anaesthetised using isofluorane/oxygen mixture. The skull was then exposed and 5 ul of GR73632 ([…].) was injected by insertion of a cuffed 25G needle to a depth of 4 mm below bregma, directly into the lateral ventricle (intracerebroventricular dosing). Immediately following the injection, gerbils were placed individually into a clear observation box to recover.
Upon the gerbil regaining its righting reflex, the duration of repetitive hind foot tapping was recorded over a 5 minute period. The dose of the test compound required to inhibit by 50% the tapping induced by the NK1 agonist expressed as mg/kg is referred to as the ID50 values.

Where a name gives a salt, the structure may show the parent alone.

For `Cc1cc(F)ccc1-c1cc([C@H]2CC[C@](C)(C(N)=O)N2)ncc1N(C)C(=O)C(C)(C)c1cc(C(F)(F)F)cc(C(F)(F)F)c1` [Example 11, (5R)-5-[5-[{2-[3,5-bis(trifluoromethyl)phenyl]-2-methylpropanoyl}(methyl)amino]-4-(4-fluoro-2-methylphenyl)-2-pyridinyl]-2-methyl-D-prolinamide bis-hydrochloride], at human NK3 receptor, the Ki was 0.0316 µM. For the same compound, the “GR73632-induced Foot Tapping behaviour” value on NK1 receptor (gerbil, 0.3, 1.0 and 3.0 mg/kg p.o (P<0.01)) is on record as “significantly attenuated”. Also, the “ID50 as plasma concentration” value at NK1 receptor (gerbil, p.o., GR73632 icv) was “approximately 5 ng/ml plasma”. Also, at NK1 receptor (po, gerbil, p.o., GR73632 icv, read-out: ID50, dose inhibiting by 50% the foot tapping induced by the NK1 agonist), the ED50 was roughly 0.2 mg/kg.

Source of the values: patent publication US20090286836A1, “Novel Compounds” (priority 2008, published 2009).
